Target: T1, PLK1 (Homo sapiens, UniProt P53350)
T1 construct: endogenous in cells; host or cells: HeLa
Assay: PLK1 protein degradation by western blotting in HeLa cells
Type: cell-based
Conditions: thymidine block and release, compound 100 nM, 6 hours, PLK1/GAPDH ratio, read-out: PLK1 protein degradability (Dmax)
Method: The HeLa cell line was purchased from Korea Cell Line Bank (KCLB), Seoul, Korea. The passage in cell culture was maintained at P115 to P125.
2×10^5 cells were seeded for each well of a 12-well plate (SPL), and the cells were cultured in the culture medium in a total volume of 2 ml.
The compounds of Examples were completely dissolved in DMSO and used in the experiment, and thymidine was completely dissolved in DW and used in the experiment. For thymidine block, the products were treated with 2 mM of thymidine (Sigma-Aldrich Cat. No. T9250-5G) and then incubated for 24 hours.
For release and chemical treatment, the medium was suctioned and washed 3 times with 1×PBS. Complete media was added, followed by incubation for 4 hours in a CO2 incubator. Each compound was treated according to the concentration of 100 nM and then incubated for 6 hours again.
For SDS-PAGE and Western blotting, 1×RIPA lysis buffer (Rockland, Cat. No. MB-030-0050; Lot no. 39751), 100× Protease Inhibitor Cocktail (Quartett, Cat. No. PPI1015; Lot no. PC050038424), Pierce ? BCA protein assay kit (ThermoScientific, Cat. No. 23225; Lot no. UC276876), albumin standard (ThermoScientific, Cat. No. 23209; Lot no. UB269561), 4-15% Mini-PROTEAN TGX stain-free gel (Bio-rad, Cat. No. 4568085; Lot no. L007041B), 10× Tris/Glycine/SDS buffer (Bio-rad, Cat. No. 1610732; Lot no. 10000044375B); 10×TBS (Bio-rad, Cat. No. 1706435; Lot no. 1000045140B), 10% Tween 20 (Cat. No. 1610781; Lot no. L004152B), Color protein standard broad range (NEB, Cat. No. P7719S; Lot no. 10040349), 4× Laemmli sample buffer (Bio-rad, Cat. No. 1610747; Lot no. L004133B), β-mercaptoethanol (Sigma-Aldrich, Cat. No. M3148; Lot no. 60-24-2), SuperBlock ? T20 (TBS) blocking buffer (ThermoScientific, Cat. No. 37536; Lot no. UC282578), 1M sodium azide solution (Sigma-Aldrich, Cat. No. 08591-1 mL-F; Lot no. BCBV4989), α-Rabbit pAb to Ms IgG (abcam, Cat. No. ab97046; Lot no. GR3252115-1), α-Goat pAb to Rb IgG (CST, Cat. No. 7074S; Lot no. 28), α-GAPDH (abeam, Cat. No. ab8245; Lot no. GR3275542-2), α-Plk1 (CST, Cat. No. 208G4), α-BRD4 (CST, Cat. No. 13440S), ECL ? Prime western blotting reagents (GE Healthcare, Cat. No. RPN2232; Lot no. 17001655), Ponceau S solution (Sigma-Aldrich, Cat. No. P7170; Lot no. SLBV4112), Difco ? […]
Then, a standard curve was obtained using the BCA assay, and the protein mass in the lysate was quantified by substituting the curve equation. The mixture was incubated at 37° C. for 30 minutes using 20 μL of standard or sample solution, and 200 μL of BCA or Bradford solution, and measured at 562 nm absorbance. Samples were prepared by adding 4× sample buffer so that the quantity of protein added to each well was 15 μg. […]

T1 sequence (P53350 whole entry): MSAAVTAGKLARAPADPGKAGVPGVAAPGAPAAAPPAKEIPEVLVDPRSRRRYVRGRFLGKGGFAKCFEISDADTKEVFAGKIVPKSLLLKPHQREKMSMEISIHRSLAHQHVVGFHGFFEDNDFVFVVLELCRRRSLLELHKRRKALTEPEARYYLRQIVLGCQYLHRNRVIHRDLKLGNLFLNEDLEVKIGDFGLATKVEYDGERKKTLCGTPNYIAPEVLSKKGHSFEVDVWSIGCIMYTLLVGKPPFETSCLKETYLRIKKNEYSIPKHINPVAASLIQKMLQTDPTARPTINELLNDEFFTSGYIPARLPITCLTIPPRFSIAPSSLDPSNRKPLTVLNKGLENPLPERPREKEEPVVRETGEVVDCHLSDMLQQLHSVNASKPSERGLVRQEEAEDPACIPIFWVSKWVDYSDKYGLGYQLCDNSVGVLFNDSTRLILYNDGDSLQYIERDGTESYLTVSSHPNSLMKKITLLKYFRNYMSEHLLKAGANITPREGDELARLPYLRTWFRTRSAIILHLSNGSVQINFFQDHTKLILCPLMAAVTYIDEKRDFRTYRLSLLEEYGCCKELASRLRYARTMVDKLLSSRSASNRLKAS

Dmax at 0.1 µM	Structure (SMILES)
≥ 60%	Cn1nc(C(N)=O)c2c1-c1nc(Nc3cc(N4CCN(CCOCCOCCOCCOCCNc5cccc6c5C(=O)N(C5CCC(=O)NC5=O)C6=O)CC4)ccc3OC(F)(F)F)ncc1CC2 (stereo not shown) [Compound 7, 8-((5-(4-(14-((2-(2,6-dioxopiperidin-3-yl)-1,3-dioxoisoindolin-4-yl)amino)-3,6,9,12-tetraoxatetradecyl)piperazin-1-yl)-2-(trifluoromethoxy)phenyl)amino)-1-methyl-4,5-dihydro-1H-pyrazolo[4,3-h]quinazoline-3-carboxamide]
≥ 60%	COc1c(Nc2ncc3c(n2)-c2c(c(C(N)=O)nn2C)CC3)cc(N2CCN(C)CC2)cc1C(=O)NCCOCCOCCNc1cccc2c1C(=O)N(C1CCC(=O)NC1=O)C2=O (stereo not shown) [Compound 2, 8-((3-((2-(2-(2-((2-(2,6-dioxopiperidin-3-yl)-1,3-dioxoisoindolin-4-yl)amino)ethoxy)ethoxy)ethyl)carbamoyl)-2-methoxy-5-(4-methylpiperazin-1-yl)phenyl)amino)-1-methyl-4,5-dihydro-1H-pyrazolo[4,3-h]quinazoline-3-carboxamide]
≥ 60%	COc1c(Nc2ncc3c(n2)-c2c(c(C(N)=O)nn2C)CC3)cc(N2CCN(C)CC2)cc1C(=O)NCCOCCOCC(=O)N[C@H](C(=O)N1C[C@H](O)C[C@H]1C(=O)NCc1ccc(-c2scnc2C)cc1)C(C)(C)C [Compound 9, 8-((3-((2-(2-(2-(((S)-1-((2S,4R)-4-hydroxy-2-((4-(4-methylthiazol-5-yl)benzyl)carbamoyl)pyrrolidin-1-yl)-3,3-dimethyl-1-oxobutan-2-yl)amino)-2-oxoethoxy)ethoxy)ethyl)carbamoyl)-2-methoxy-5-(4-methylpiperazin-1-yl)phenyl)amino)-1-methyl-4,5-dihydro-1H-pyrazolo[4,3-h]quinazoline-3-carboxamide]
≥ 60%	COc1c(Nc2ncc3c(n2)-c2c(c(C(N)=O)nn2C)CC3)cc(N2CCN(C)CC2)cc1C(=O)NCCOCCOCCOCCNc1cccc2c1C(=O)N(C1CCC(=O)NC1=O)C2=O (stereo not shown) [Compound 3, 8-((3-((2-(2-(2-(2-((2-(2,6-dioxopiperidin-3-yl)-1,3-dioxoisoindolin-4-yl)amino)ethoxy)ethoxy)ethoxy)ethyl)carbamoyl)-2-methoxy-5-(4-methylpiperazin-1-yl)phenyl)amino)-1-methyl-4,5-dihydro-1H-pyrazolo[4,3-h]quinazoline-3-carboxamide]
